Reference: ChEMBL document CHEMBL1221262, “Synthesis and antituberculosis activity of new fatty acid amides” (2010)
Values after ≈ are worked out from the molar mass of the structure shown.

Columns and labels:
[1] = test system: Mycobacterium tuberculosis; experiment: Antitubercular activity against isoniazid-resistant Mycobacterium tuberculosis H37Rv ATCC 35822 after 7 days by resazurin microtiter assay; assay type: functional; details: H37Rv ATCC 35822, 168 h
[2] = test system: Mycobacterium tuberculosis; experiment: Antitubercular activity against rifampicin-resistant Mycobacterium tuberculosis H37Rv ATCC 35338 after 7 days by resazurin microtiter assay; assay type: functional; details: H37Rv ATCC 35338, 168 h

| SMILES | MIC [1] [µg/mL] | MIC [2] [µg/mL] |
| --- | --- | --- |
| CCCCCCCC/C=C\CCCCCCCC(=O)N1CCCCC1 | 12.5 (≈ 35.8 µM) | 25 (≈ 71.5 µM) |
| CCCCCCCC/C=C\CCCCCCCC(=O)N1CCOCC1 | 6.25 (≈ 17.8 µM) | 12.5 (≈ 35.6 µM) |
| CCCCCC[C@@H](O)C/C=C\CCCCCCCC(=O)NCc1ccccc1 | 12.5 (≈ 32.2 µM) | 12.5 (≈ 32.2 µM) |
| CCCCCC[C@@H](O)C/C=C\CCCCCCCC(=O)N[C@H](C)c1ccccc1 | 12.5 (≈ 31.1 µM) | 25 (≈ 62.2 µM) |
| CCCCCC[C@@H](O)C/C=C\CCCCCCCC(=O)N[C@@H](C)c1ccccc1 | 100 (≈ 249 µM) | 50 (≈ 124 µM) |
| CCCCCC[C@@H](O)C/C=C\CCCCCCCC(=O)N1CCCC1 | 6.25 (≈ 17.8 µM) | 6.25 (≈ 17.8 µM) |
| CCCCCC[C@@H](O)C/C=C\CCCCCCCC(=O)N1CCOCC1 | 6.25 (≈ 17 µM) | 12.5 (≈ 34 µM) |
| CCCCC/C=C\C/C=C\CCCCCCCC(=O)N[C@H](C)c1ccccc1 | 12.5 (≈ 32.6 µM) | 25 (≈ 65.2 µM) |
| CCCCC/C=C\C/C=C\CCCCCCCC(=O)N[C@@H](C)c1ccccc1 | 6.25 (≈ 16.3 µM) | 12.5 (≈ 32.6 µM) |
| CCCCC/C=C\C/C=C\CCCCCCCC(=O)N1CCCC1 | 12.5 (≈ 37.5 µM) | 12.5 (≈ 37.5 µM) |
| CCCCCCCCCCCCCCCC(=O)N[C@H](C)c1ccccc1 | > 100 | > 100 |
| CCCCCCCCCCCCCCCC(=O)N[C@@H](C)c1ccccc1 | > 100 | > 100 |
| CCCCCCCCCCCCCCCC(=O)N1CCCC1 | 25 (≈ 80.8 µM) | 25 (≈ 80.8 µM) |
| CCCCCCCCCCCCCCCC(=O)N1CCCCC1 | 25 (≈ 77.3 µM) | 25 (≈ 77.3 µM) |
| CCCCCCCCCCCCCCCCCC(=O)N[C@H](C)c1ccccc1 | > 100 | > 100 |
| CCCCCCCCCCCCCCCCCC(=O)N[C@@H](C)c1ccccc1 | > 100 | > 100 |
| CCCCCCCC/C=C\CCCCCCCC(=O)NCc1ccccc1 | 100 (≈ 269 µM) | – |
| CCCCCCCC/C=C\CCCCCCCC(=O)N[C@H](C)c1ccccc1 | 12.5 (≈ 32.4 µM) | 50 (≈ 130 µM) |
| CCCCCCCC/C=C\CCCCCCCC(=O)NC(C)c1ccccc1 (configuration not stated) | – | 100 (≈ 259 µM) |
| CCCCCCCC/C=C\CCCCCCCC(=O)N1CCCC1 | 6.25 (≈ 18.6 µM) | 12.5 (≈ 37.2 µM) |
| CCCCCCCC/C=C\CCCCCCCC(=O)NCCO [OLEOYLETHANOLAMIDE] | 12.5 (≈ 38.4 µM) | 25 (≈ 76.8 µM) |
| CCCCCCCCCCCCCCCC(=O)NCCO [PALMIDROL] | > 100 | > 100 |
